# Measured values: patent US20070184490A1, “Neuronal nicotinic receptor ligands and their use” (priority 2006, published 2007)
# Assays:
# human α4 β2 NNRs = human α4 β2 NNRs (Homo sapiens, UniProt P17787+P43681); assay: binding to human α4β2 NNRs in vitro
# [1] = pilot study: tolerability and safety; format: in vivo, human; details: for Adverse event Headache, subjects reporting / Adverse event Increased appetite, subjects reporting / Adverse event Nervousness, subjects reporting / Adverse event Pain, subjects reporting / Adverse event Somnolence, subjects reporting: N=11
# Method: Safety was evaluated by spontaneous report of adverse events; in addition, laboratory data (hematology, chemistry, urinalysis), vital signs, and electrocardiograms ([…]) were completed at baseline and at the end of each treatment period.
# [2] = tested on: α4β2, α3β4, or α3β2 NNR subtypes; assay: ion channel flux in cells expressing NNR subtypes; format: cell-based
# From the text: One method for assessing ion channel flux is via activation of ion flux into a cell expressed with recombinant α4β2, α3β4, or α3β2 NNR subtypes. Alternatively, a native cell line that expresses NNRs also can be suitable. The method can be accomplished under any suitable binding conditions. Examples of suitable binding conditions for [^3H]-cytisine binding have been described in the art, for example in at least U.S. Pat. Nos. 6,403,575 and 6,133,253, the procedures of which are herein incorporated by reference in their entirety. Data obtained from such ion channel flux assays can be evaluated to determine percent maximal nicotinic response (%), which directly correlates to percent maximal agonist efficacy.
# Cells of IMR-32 human neuroblastoma clonal cell line (ATCC, Rockville, Md., USA) were maintained in a log phase of growth according to established procedures. Experimental cells were seeded at a density of 500,000 cells/mL into a 24-well tissue culture dish. Plated cells were allowed to proliferate for at least 48 hours before loading with 2 μCi/mL of ^86Rb^+ (35 Ci/mmol) overnight at 37° C. The ^86Rb^+ efflux assays were performed according to previously published protocols (Lukas, R. J., J. Pharmacol. Exp. Ther., 265, 294-302, 1993) except serum-free Dulbecco's Modified Eagle's medium was used during the ^86Rb^+ loading, rinsing, and agonist-induced efflux steps. […]
# [3] = pilot study: population PK plasma concentrations at steady state; format: in vivo, human
# Method: Blood samples for pharmacokinetic analysis were taken at 0, 1, 2, 4, and 8 hours on Day 1 and at approximately 2 hours post-dose on the last day of each dosing period. The blood samples were immediately stored at 4° C. or below. The blood samples were centrifuged within one hour of collection using a refrigerated centrifuge to separate the plasma. The plasma samples were transferred using plastic pipettes into plastic vials. The plasma samples were frozen at −20° C. within one hour from centrifugation and remained frozen until shipped to Abbott Laboratories for analysis.
# Due to limited pharmacokinetic sampling timepoints, trough and average concentrations were estimated using a non-linear mixed-effect pharmacokinetic modeling approach with NONMEM software Version V).
# [4] = Phase 1 multiple dose human study; format: in vivo; details: 5 to 40 mg twice daily
# [5] = animal models; U-shaped dose-response; cited from earlier work
# human α4 β2 NNRs, sequence (P43681 29-627 limits assumed): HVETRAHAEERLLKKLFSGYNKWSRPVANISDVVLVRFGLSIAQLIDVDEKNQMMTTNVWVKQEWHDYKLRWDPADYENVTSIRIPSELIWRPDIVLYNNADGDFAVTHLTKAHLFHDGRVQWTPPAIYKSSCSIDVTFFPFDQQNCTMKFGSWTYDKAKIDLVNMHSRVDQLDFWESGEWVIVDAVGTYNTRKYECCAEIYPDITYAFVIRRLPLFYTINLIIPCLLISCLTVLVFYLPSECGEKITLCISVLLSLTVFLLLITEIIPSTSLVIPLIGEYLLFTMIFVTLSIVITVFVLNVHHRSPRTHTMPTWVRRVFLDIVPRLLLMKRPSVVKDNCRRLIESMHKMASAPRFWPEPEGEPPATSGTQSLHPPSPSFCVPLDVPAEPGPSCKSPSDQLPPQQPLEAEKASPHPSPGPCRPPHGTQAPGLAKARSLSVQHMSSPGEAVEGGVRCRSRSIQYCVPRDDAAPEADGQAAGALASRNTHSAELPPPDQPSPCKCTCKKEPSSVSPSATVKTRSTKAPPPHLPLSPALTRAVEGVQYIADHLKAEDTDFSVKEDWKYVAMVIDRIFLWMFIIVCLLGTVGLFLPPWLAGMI
# human α4 β2 NNRs, sequence (P17787 26-502): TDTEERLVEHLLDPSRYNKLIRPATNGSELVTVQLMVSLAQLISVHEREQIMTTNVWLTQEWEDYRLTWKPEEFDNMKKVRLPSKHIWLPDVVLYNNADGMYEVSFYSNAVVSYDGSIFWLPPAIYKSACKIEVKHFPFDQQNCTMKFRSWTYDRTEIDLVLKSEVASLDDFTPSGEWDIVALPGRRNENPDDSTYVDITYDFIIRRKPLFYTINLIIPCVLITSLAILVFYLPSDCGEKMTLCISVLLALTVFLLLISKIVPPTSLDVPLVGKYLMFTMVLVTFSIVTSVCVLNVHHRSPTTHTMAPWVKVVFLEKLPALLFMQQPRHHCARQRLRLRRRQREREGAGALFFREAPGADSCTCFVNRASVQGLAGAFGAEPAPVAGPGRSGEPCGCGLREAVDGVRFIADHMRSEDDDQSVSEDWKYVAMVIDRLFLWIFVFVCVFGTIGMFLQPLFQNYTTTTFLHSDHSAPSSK
smiles,measurement,setting,value
"Cc1ncccc1OC[C@@H]1CCCN1 [ABT-089, 2-methyl-3-(2-(S)-pyrrolidinylmethoxy)pyridine]",binding to human α4 β2 NNRs,human α4 β2 NNRs,very selectively binds
same,"Adverse event Headache, subjects reporting",[1]; 2 mg bid,3
same,"Adverse event Increased appetite, subjects reporting",[1]; 2 mg bid,0
same,"Adverse event Nervousness, subjects reporting",[1]; 2 mg bid,1
same,"Adverse event Pain, subjects reporting",[1]; 2 mg bid,0
same,"Adverse event Somnolence, subjects reporting",[1]; 2 mg bid,0
same,serious adverse events,[1]; 2 mg to 20 mg twice daily,no serious adverse events
same,tolerability,"[1]; 2 mg to 20 mg twice daily, 11 adult ADHD subjects",well tolerated
same,"Adverse event Headache, subjects reporting",[1]; 4 mg bid,0
same,"Adverse event Increased appetite, subjects reporting",[1]; 4 mg bid,0
same,"Adverse event Nervousness, subjects reporting",[1]; 4 mg bid,0
same,"Adverse event Pain, subjects reporting",[1]; 4 mg bid,0
same,"Adverse event Somnolence, subjects reporting",[1]; 4 mg bid,0
same,"nausea, subjects",[1]; 4 mg dose,one subject
same,"Adverse event Headache, subjects reporting",[1]; 20 mg bid,2
same,"Adverse event Nervousness, subjects reporting",[1]; 20 mg bid,1
same,"Adverse event Pain, subjects reporting",[1]; 20 mg bid,2
same,"Adverse event Somnolence, subjects reporting",[1]; 20 mg bid,2
same,"laboratory findings, vital signs or ECG",[1]; during the study,no clinically meaningful findings or dose-related trends
same,agonist activity at NNRs expressed in vitro,[2],weak agonist activity
same,"Cavg Mean (±SD), model-predicted, steady state",[3]; 2 mg bid,4.47 (1.05) ng/mL
same,"Ctrough Mean (±SD), model-predicted, steady state",[3]; 2 mg bid,1.85 (0.79) ng/mL
same,"Cavg Mean (±SD), model-predicted, steady state",[3]; 4 mg bid,8.94 (2.09) ng/mL
same,"Ctrough Mean (±SD), model-predicted, steady state",[3]; 4 mg bid,3.69 (1.59) ng/mL
same,"Cavg Mean (±SD), model-predicted, steady state",[3]; 20 mg bid,44.7 (10.46) ng/mL
same,"Ctrough Mean (±SD), model-predicted, steady state",[3]; 20 mg bid,18.46 (7.95) ng/mL
same,tolerability,[4],well tolerated
same,"Simple Reaction Time, a measure of attention",[4]; compared to placebo,significantly improved
same,plasma levels associated with efficacy,[5],5 to 15 ng/mL
